# Test results from patent publication US20060148799A1, “Substituted p-phenyl carbamates” (Novo Nordisk A/S, priority 2003, published 2006).
# Target: T1, Hormone-sensitive lipase (HSL) (Homo sapiens, UniProt Q05469)
# T1 construct: made in house
# T1 sequence (Q05469 1-1076): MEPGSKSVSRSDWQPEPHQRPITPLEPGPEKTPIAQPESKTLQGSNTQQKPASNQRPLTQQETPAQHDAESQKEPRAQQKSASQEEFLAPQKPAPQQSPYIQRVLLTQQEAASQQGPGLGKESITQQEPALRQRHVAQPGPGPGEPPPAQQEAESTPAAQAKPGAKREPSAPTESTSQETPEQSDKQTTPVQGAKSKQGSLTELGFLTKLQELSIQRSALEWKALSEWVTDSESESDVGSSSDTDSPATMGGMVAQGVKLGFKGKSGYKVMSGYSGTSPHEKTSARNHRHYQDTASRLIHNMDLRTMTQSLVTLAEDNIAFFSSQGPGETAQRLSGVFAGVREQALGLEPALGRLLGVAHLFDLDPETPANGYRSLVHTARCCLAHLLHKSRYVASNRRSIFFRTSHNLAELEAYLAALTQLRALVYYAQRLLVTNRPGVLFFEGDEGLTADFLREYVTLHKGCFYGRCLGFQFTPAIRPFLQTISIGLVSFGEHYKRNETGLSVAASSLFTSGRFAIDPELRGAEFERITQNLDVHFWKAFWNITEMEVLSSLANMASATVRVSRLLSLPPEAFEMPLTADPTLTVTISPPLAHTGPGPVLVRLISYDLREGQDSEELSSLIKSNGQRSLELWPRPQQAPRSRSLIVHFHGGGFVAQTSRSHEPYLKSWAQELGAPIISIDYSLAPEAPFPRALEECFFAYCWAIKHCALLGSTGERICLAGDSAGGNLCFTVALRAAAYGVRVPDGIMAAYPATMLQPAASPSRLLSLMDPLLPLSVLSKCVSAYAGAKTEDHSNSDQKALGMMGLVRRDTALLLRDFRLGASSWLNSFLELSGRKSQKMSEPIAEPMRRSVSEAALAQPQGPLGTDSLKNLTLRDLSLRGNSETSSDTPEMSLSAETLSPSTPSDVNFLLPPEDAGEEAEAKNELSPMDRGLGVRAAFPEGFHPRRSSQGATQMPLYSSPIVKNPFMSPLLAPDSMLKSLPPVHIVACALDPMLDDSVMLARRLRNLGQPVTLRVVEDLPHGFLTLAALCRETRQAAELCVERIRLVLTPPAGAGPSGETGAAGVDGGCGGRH
# Assay: 3190.1: percent inhibition of hormone sensitive lipase at 10 μM (fluorochrome-labeled triacylglyceride emulsion)
# Type: biochemical
# Settings: % activity relative to non-inhibited sample; 10 μM sample concentration; 30 min pre-incubation at 25° C., 120 min incubation at 37° C.; read-out: 3190.1 HSL_FL % ACTIVITY (%)
# Source text: Materials. The Hormone-sensitive lipase was provided by Dr. Cecilia Holm, from Lund University Sweden or produced and purified by Novo Nordisk (NN) using the reagents and protocols used by Dr. Holm. The substrates used are: ^3H-labeled triolein (TO) from Amersham, Buckinghamshire, U.K. cat No. TRA191; 5-20 Ci/mmol dissolved in toluene, triolein (Sigma, Cat. No. T-1740), fluorochrome-labeled triacylglyceride (cis-octadec-9-enoic acid 2-[12-(7-nitrobenzo[1,2,5]oxadiazol-4-ylamino)dodecanoyloxy]-1-cis-octadec-9-enoyloxymethyl-ethyl ester) prepared by Novo Nordisk (NN) by conventional methods, and 1,3-(di[^3H]-stearin), 2-(PEG-Biotin)glycerol prepared in collaboration with Amersham Pharmacia Biotech, UK and described in WO 01/073442. Phosphatidyl choline (PC) and phosphatidyl inositol (PI) are from Sigma (St Luis Mo. cat. Nos. P-3556 and P-5954 respectively). All other reagents are of commercial grade and obtained from various commercial sources.
# 3190.1: Assay for determination of percent inhibition of hormone sensitive lipase by compound at 10 μM sample concentration.
# A lipid emulsion with fluorochrome-labeled triacylglyceride and phospholipid is used as substrate with a standard concentration of highly purified HSL (12 μg/mL initial concentration corresponding to 600 ng/mL final concentration). BSA is added as product acceptor. The transfer of the fluorochrome from the lipid phase to the water (BSA) phase changes the fluorescent properties of the fluorochrome. The changes can be monitored on a fluorimeter with an excitation wavelength of 450 nm and an emission wavelength of 545 nm.
# Compound and HSL (20 μL compound, 10 μL enzyme and 70 μL PED-BSA buffer) is pre-incubated for 30 min at 25° C. before addition of substrate (100 μL). Amount of formed product is measured after 120 min incubation at 37° C.
# Results are given as percent activity relative to a non-inhibited sample (no compound).
row,Compound,activity at 10 µM [%]
1,"CN(C(=O)Oc1ccc(NC(=O)c2ccc(CN3CCCCC3)cc2)cc1)c1ccccc1 [Example 1, Methyl-phenyl-carbamic acid 4-(4-piperidin-1-ylmethyl-benzoylamino)-phenyl ester]",4
2,"CN(C(=O)Oc1ccc(NC(=O)c2ccc(CN3CCOCC3)cc2)cc1)c1ccccc1 [Example 2, Methyl-phenyl-carbamic acid 4-(4-morpholin-4-ylmethyl-benzoylamino)-phenyl ester]",4
3,"CC1CCN(Cc2ccc(C(=O)Nc3ccc(OC(=O)N(C)c4ccccc4)cc3)cc2)CC1 [Example 3, Methyl-phenyl-carbamic acid 4-[4-(4-methyl-piperidin-1-ylmethyl)-benzoylamino]-phenyl ester]",2
